This is an account of results in US6799123B2, “Dissolution test equipment and method” (priority 2001, dated 2004).

Like-named read-outs stand apart in the source and are kept apart here.

For data set [1] the following is noted: in vivo blood plasma concentration profile from literature; cited from earlier work.
The conditions of data set [2]: cited from earlier work.
Data set [3] is described as follows: Single cell dissolution test (comparative). The settings on record: flow rate optimized to match in vivo data. The data set is classed as physicochemical. On the procedure: Equipment was set up as follows: A continuous, stirred, filtration cell, such as the Amicon stirred ultrafiltration cell model 8050, available from Millipore Corporation, was equipped with a peristaltic pump to feed fluid into the cell at a rate in the range 3-10 ml/min. The filtrate from the cell was passed into a 1 cm path length flow-through quartz uv cell. The uv cell is situated in a suitable uv spectrophotometer, such as the Genesys 2, UV Spectrophotemer available from Spectronic Instruments. The filtration cell was fitted with a 3 micron filter to retain undissolved particles. 60 ml of simulated intestinal fluid pH 7.4 was added to the filtration cell, and then simulated intestinal fluid was fed into it via the pump at a flow rate of 6.5 ml/min. This was continued until the absorbance at 276 nm as measured in the uv cell was constant. 50 mg of diclofenac sodium was then added to the filtration cell. The uv absorbance at 276 nm of the effluent from the cell was recorded through the duration of the test. The concentration was calculated using a suitably determined calibration curve. In Table 1 the data from this experiment is compared with in vivo data reported in U.S. Pat. No. 4,510,128. The flow rate for this example was optimized such that the uv absorbance returned to baseline within approximately the same time (8 hours) as the in vivo data.

Take `CC(C)Cc1ccc(C(C)C(=O)O)cc1` (stereo not drawn) [ibuprofen]: in data set [1], the “t10 for in vivo data (time after Cmax to fall to 10% of Cmax)” value is 410 min and the “tmax for in vivo data” value was 1.17 h.
As to `CC(=O)Nc1ccc(O)cc1` [paracetamol], in data set [1], the “t10 for in vivo data (time after Cmax to fall to 10% of Cmax)” value was 510 min and the “tmax for in vivo data” value was 0.55 h.
Turning to `O=C(O)Cc1ccccc1Nc1c(Cl)cccc1Cl` [diclofenac sodium], the solubility result in data set [2] (low pH of the stomach) is reported as “essentially insoluble”; in data set [2] (near neutral conditions of the upper GI), “soluble”. For the same molecule, the “time for uv absorbance of effluent to return to baseline” value in data set [3] was ~8 h.
Regarding `CN[C@@H](C)[C@@H](O)c1ccccc1` [pseudoephedrine], in data set [1], the “t10 for in vivo data (time after Cmax to fall to 10% of Cmax)” value was 1380 min and the “tmax for in vivo data” value was 1.5 h.
